Biological target: T1, PA3944 (Pseudomonas aeruginosa, UniProt Q9HX72)
T1 construct: heterologous expression; N-terminal polyhistidine tag kept for kinetics, removed for crystallization; monomer in solution
Test: X-ray crystal structure ([…] Å)
Type: binding
Details: co-crystallized with 5 mM AcCoA, donor site

T1 sequence (Q9HX72 whole entry): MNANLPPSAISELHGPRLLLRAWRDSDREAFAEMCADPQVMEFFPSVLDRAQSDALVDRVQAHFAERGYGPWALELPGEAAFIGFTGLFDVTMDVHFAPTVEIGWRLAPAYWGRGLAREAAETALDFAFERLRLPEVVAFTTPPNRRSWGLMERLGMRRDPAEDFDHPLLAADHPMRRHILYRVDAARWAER

Structure (SMILES) | X-ray crystal structure (1.80 Å) (AcCoA modeled in chain B) | X-ray crystal structure (1.80 Å) (CoA modeled in chain A)
CC(=O)SCCNC(=O)CCNC(=O)[C@H](O)C(C)(C)COP(=O)(O)OP(=O)(O)OC[C@H]1O[C@@H](n2cnc3c(N)ncnc32)[C@H](O)[C@@H]1OP(=O)(O)O [AcCoA] | we modeled CoA in chain A and AcCoA in chain B | –
CC(C)(COP(=O)(O)OP(=O)(O)OC[C@H]1O[C@@H](n2cnc3c(N)ncnc32)[C@H](O)[C@@H]1OP(=O)(O)O)[C@@H](O)C(=O)NCCC(=O)NCCS [CoA] | – | we modeled CoA in chain A and AcCoA in chain B
